Consider one compound from ChEMBL document CHEMBL6115017, “Discovery of DFV890, a Potent Sulfonimidamide-Containing NLRP3 Inflammasome Inhibitor” (J Med Chem, 2025).

Series [1] in a line: Volume of distribution at steady state in Beagle dog at 2 mg/kg, po and 1 mg/kg, iv by LC-MS analysis. It counts as ADME, organism-based, Canis lupus familiaris. Particulars: in vivo.
Series [2] is described as follows: Half life in Cynomolgus monkey at 5 mg/kg, po and 2 mg/kg, iv by LC-MS analysis. Particulars: in vivo. It counts as ADME, organism-based, Macaca fascicularis.
The nature of series [3]: Oral bioavailability in Cynomolgus monkey at 5 mg/kg administrated through oral gavage and 2 mg/kg, iv by LC-MS analysis. It counts as ADME, organism-based, Macaca fascicularis. Particulars: in vivo.
Series [4] is described as follows: Cmax in C57 BL6 mouse at 10 mg/kg, po by LC-MS analysis. The note with it: in vivo. In kind it is ADME, organism-based.
The nature of series [5]: Fraction unbound in C57 BL6 mouse plasma. In kind it is ADME, cell-free.
Series [6] can be described thus: AUC (infinity) in Sprague-Dawley rat at 5 mg/kg, po by LC-MS analysis. It counts as ADME, organism-based. The note with it: in vivo.
Series [7] in a line: AUC (infinity) in Beagle dog at 2 mg/kg, po by LC-MS analysis. In kind it is ADME, organism-based, Canis lupus familiaris. Particulars: in vivo.
Series [8] can be described thus: Cytotoxicity against human HEK293 cells measured after 72 hrs. In kind it is toxicity, cell-based.
Series [9] is described as follows: Lipophilicity, log D of compound in potassium phosphate buffer/octanol at pH 7.4. In kind it is physicochemical.
The nature of series [10]: Apparent permeability of the compound across apical to basolateral side in MDCK. In kind it is ADME, cell-based, Canis lupus familiaris. Particulars: dog.
The next series deals with T1, Cytochrome P450 2C8 (Homo sapiens, UniProt P10632).
T1 sequence (P10632 whole entry): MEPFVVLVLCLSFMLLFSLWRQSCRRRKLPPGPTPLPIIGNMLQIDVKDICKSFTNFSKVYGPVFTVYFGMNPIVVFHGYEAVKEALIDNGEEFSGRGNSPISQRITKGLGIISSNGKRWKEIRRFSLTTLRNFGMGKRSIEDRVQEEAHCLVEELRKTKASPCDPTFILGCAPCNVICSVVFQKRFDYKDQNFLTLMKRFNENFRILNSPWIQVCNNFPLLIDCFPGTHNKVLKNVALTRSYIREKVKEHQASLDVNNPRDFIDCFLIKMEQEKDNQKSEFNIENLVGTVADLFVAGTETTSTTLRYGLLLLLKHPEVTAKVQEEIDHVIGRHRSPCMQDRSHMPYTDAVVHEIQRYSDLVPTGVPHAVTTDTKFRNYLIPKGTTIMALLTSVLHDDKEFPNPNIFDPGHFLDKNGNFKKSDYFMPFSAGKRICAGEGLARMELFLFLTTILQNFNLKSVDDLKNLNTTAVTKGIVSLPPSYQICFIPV
The series can be described thus: Inhibition of CYP2C8 (unknown origin). In kind it is ADME.

The target in series [11] is T2, Cytochrome P450 2C19 (Homo sapiens, UniProt P33261). The series can be described thus: Inhibition of CYP2C19 (unknown origin). In kind it is ADME.
For series [12], the target named is T3, Cytochrome P450 2D6 (Homo sapiens, UniProt P10635). The series can be described thus: Inhibition of CYP2D6 (unknown origin). In kind it is ADME.
In the next series the target is T4, Cytochrome P450 1A2 (Homo sapiens, UniProt P05177).
T4 sequence (P05177 whole entry): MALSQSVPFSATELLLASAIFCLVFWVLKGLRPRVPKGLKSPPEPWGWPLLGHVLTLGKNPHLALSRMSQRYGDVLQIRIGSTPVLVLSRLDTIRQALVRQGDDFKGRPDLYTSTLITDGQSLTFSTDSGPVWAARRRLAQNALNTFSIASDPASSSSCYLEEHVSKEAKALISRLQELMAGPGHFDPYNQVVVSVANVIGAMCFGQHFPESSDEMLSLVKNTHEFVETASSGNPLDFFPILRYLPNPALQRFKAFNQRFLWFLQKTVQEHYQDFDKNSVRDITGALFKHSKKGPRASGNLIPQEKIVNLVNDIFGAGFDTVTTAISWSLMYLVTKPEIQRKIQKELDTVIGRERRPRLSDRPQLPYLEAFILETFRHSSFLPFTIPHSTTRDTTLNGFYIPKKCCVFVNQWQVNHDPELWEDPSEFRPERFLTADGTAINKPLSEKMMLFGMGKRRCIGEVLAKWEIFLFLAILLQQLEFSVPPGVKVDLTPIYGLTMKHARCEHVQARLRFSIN
The series can be described thus: Inhibition of CYP1A2 (unknown origin) by time dependent inhibition assay. In kind it is ADME.

In series [13] the target is T2, Cytochrome P450 2C19. As to the kind of experiment: Inhibition of CYP2C19 (unknown origin) by time dependent inhibition assay. It counts as ADME.
Series [14] has as its target T3, Cytochrome P450 2D6. The series can be described thus: Inhibition of CYP2D6 (unknown origin) by time dependent inhibition assay. It counts as ADME.
Series [15] in a line: Mutagenicity in Salmonella typhimurium by AMES test. In kind it is toxicity. The note with it: salmonella enterica subsp. enterica serovar typhimurium.
A further series has as its system THP-1. As to the kind of experiment: Inhibition of mCerulean-tagged ASC pyroptosome formation in PMA-primed human THP-1 cells assessed as speak count pretreated for 1 hr followed by stimulated with gramicidin for 2 hrs by fluorescence imaging analysis. In kind it is cell-based. The note with it: dose 0.001-100 µM.
Series [16] has as its target Nucleotide-binding oligomerization domain-containing protein 2 (Homo sapiens) (UniProt Q9HC29). The series can be described thus: Inhibition of human NOD2 inflammasome activation expressed in […] cells assessed as inhibition of L18-MDP induced NF-kappaB activation by measuring SEAP activity pretreated for 1 hr followed by induced with L18-MDP measured after 18 hrs by Spectrophotometric analysis. It counts as cell-based. The note with it: HEK, time 19.0 hrs.

In a further series the test system is Macrophage. The series can be described thus: Inhibition of pyrin inflammasome activation in immortalized NLRP3-KO mouse macrophages assessed as inhibition of TcdB-induced IL-1beta release pretreated for 1 hr followed by induced with TcdB measured after 6 hrs by HTRF analysis. Particulars: time 7.0 hrs. It counts as cell-based. Background: In TR-FRET formats the signal depends on donor and acceptor labels being close together.

For series [17], the system named is Mus musculus. As to the kind of experiment: In vivo inhibition of NLRP3 dependent cytokine production in po dosed LPS-challenged C57BL/6 mouse model assessed as inhibition of LPS-induced IL-6 production in blood pretreated for 1 hr followed by induced with LPS measured after 5 hrs by cytokine bead assay. It counts as functional, organism-based. The note with it: time 6.0 hrs.

Series [18] deals with Mus musculus. As to the kind of experiment: In vivo inhibition of NLRP3 dependent cytokine production in po dosed LPS-challenged C57BL/6 mouse model assessed as inhibition of LPS-induced IL-18 production in blood pretreated for 1 hr followed by induced with LPS measured after 5 hrs by cytokine bead assay. In kind it is functional, organism-based. Particulars: time 6.0 hrs.

The next series deals with T5, PXR (Homo sapiens, UniProt O75469).
T5 sequence (O75469 whole entry): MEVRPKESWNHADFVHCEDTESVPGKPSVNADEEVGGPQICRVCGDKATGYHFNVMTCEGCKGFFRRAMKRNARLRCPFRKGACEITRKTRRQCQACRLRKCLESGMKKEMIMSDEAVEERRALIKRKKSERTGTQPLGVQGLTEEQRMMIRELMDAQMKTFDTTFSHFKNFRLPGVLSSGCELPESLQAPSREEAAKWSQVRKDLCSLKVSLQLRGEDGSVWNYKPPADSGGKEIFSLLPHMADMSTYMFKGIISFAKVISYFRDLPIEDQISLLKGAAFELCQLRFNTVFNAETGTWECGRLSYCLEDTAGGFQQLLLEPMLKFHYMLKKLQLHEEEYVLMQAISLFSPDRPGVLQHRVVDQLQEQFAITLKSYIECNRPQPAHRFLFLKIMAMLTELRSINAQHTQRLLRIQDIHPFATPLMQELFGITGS
As to the kind of experiment: Activation of PXR (unknown origin) assessed as activation at 30 uM relative to control. It counts as toxicity. Particulars: read-out: Activity.

The structures appear in SMILES notation. Calls of active or inactive are those of the source. The calls are words filed in the database; no cut-off is given here.

T2 sequence (P33261 whole entry): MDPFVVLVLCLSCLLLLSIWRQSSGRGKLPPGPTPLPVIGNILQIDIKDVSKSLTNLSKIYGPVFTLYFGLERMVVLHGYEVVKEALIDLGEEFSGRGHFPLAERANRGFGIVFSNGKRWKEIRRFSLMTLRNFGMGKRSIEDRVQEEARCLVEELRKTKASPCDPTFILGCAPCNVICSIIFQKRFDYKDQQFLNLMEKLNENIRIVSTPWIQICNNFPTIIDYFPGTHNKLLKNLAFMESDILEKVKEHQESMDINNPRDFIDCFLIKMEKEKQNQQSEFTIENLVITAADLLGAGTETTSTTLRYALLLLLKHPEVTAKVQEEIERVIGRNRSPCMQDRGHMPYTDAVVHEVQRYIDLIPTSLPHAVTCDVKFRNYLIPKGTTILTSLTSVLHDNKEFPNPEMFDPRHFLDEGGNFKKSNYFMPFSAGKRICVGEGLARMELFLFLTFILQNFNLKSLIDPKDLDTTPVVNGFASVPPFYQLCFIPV
T3 sequence (P10635 whole entry): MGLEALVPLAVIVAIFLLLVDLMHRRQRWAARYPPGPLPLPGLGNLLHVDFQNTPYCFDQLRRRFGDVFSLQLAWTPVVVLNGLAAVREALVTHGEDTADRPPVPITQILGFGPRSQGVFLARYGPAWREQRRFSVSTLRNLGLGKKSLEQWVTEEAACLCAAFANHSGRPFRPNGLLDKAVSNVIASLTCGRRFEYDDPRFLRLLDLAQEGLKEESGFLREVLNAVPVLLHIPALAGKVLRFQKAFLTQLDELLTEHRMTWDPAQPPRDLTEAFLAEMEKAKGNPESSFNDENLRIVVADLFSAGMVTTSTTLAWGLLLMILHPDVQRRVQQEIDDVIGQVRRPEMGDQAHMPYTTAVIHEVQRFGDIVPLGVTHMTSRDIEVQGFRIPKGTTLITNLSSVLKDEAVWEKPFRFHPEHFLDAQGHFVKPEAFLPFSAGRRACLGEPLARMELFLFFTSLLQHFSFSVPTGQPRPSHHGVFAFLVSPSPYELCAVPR
Chain of Nucleotide-binding oligomerization domain-containing protein 2 (Homo sapiens) (Q9HC29 whole entry, the tested form may be a part): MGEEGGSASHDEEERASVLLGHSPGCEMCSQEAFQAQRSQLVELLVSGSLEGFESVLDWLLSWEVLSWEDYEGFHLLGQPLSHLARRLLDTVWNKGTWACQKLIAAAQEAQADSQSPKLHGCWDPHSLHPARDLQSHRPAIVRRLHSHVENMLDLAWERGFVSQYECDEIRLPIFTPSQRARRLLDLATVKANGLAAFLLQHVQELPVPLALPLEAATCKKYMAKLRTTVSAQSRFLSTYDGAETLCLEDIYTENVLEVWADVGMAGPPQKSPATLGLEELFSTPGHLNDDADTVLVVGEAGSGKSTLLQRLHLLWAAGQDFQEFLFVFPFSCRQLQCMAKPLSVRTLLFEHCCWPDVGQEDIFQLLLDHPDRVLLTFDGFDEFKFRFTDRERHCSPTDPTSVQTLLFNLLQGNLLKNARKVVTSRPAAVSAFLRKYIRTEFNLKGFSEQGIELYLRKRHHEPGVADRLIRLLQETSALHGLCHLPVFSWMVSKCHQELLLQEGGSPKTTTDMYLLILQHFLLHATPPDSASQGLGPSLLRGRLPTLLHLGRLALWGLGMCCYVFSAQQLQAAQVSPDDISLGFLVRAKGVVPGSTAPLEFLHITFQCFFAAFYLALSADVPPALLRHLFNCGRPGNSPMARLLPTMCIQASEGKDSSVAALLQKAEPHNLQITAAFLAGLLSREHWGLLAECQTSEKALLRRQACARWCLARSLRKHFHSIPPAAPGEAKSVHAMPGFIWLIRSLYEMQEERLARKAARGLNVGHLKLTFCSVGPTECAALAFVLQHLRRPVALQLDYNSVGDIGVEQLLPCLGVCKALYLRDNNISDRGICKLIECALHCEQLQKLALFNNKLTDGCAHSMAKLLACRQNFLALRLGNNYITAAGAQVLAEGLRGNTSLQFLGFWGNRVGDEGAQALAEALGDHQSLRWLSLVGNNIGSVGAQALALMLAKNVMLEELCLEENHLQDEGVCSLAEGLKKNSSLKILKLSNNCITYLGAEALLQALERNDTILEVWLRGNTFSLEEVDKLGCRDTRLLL

In turn, `CC(C)(O)c1ncc([S@](N)(=O)=NC(=O)Nc2c3c(cc4c2CCC4)CCC3)s1` registered a Vdss in series [1] of 0.16 L/kg. Besides, the half-life – broadly, the time in which the quantity being followed falls by half – in series [2] is 5.2 h. The bioavailability – broadly, the share of a dose that reaches the circulation, judged against a reference dose that is usually intravenous – in [3] stood at 83%. The concentration in series [4] peaked (Cmax) at 22200 ng/mL. Further, the free fraction (fraction unbound) (commonly free concentration divided by total concentration) in series [5] worked out at 0.015. The AUC – broadly, concentration integrated over time – in [6] stood at 49.125 µg·h/mL. In [7], the AUC(0-inf) (in general, total exposure, with the tail of the curve extrapolated) was found to be 163 µg·h/mL. The EC50 (as a rule, the concentration at which the effect is half-maximal) at 72 h in series [8] is above 100 µM. The log distribution coefficient (logD) (as a rule, the decadic logarithm of the distribution of all forms, ionised or not, between an organic phase and buffer at a given pH) in series [9] was 2.37. For the same compound, in series [10], the apical-to-basolateral permeability (Papp A→B) (in general, the apparent permeability from the apical to the basolateral side of a cell layer) stood at 8.2 ×10⁻⁶ cm/s. Also, the half-inhibitory concentration (IC50) on Cytochrome P450 2C8, against Cytochrome P450 2C19 [11] and against Cytochrome P450 2D6 [12] was above 60 µM each time. The TDI result at Cytochrome P450 1A2, on Cytochrome P450 2C19 [13] and at Cytochrome P450 2D6 [14] was “Not_active” each time. For the same compound, the Activity result in series [15] is listed as “Non-toxic”. The inhibition result with THP-1, in the series with Mus musculus [17] and in the series on Mus musculus [18] was “Dose-dependent-effect” each time. The Activity entry (in series [16]; with Macrophage) was “inactive” in each case. Further, on PXR, the activity at 30 µM was found to be 19%.
